According to patent US7582786B2, “Synthetic catalytic free radical scavengers useful as antioxidants for prevention and therapy of disease” (Eukarion Inc., priority 1996, dated 2009):
Entries after “also recorded” stand apart in the source; their conditions may differ.

Experiments:
[1] = SOD activity, xanthine/xanthine oxidase with NBT as acceptor (Example 2); type: biochemical
Procedure: (§1) Superoxide dismutase (SOD) activity was assayed by following the inhibition of the reduction of an electron acceptor molecule in the presence of the free-radical generating system xanthine/xanthine oxidase (McCord et al. (1973) Superoxide and Superoxide Dismutase in “Oxidases and Related Redox Systems, vol. I, King et al. eds., University Park press, Baltimore, pp. 51-76). The assay mixture consisted of 50 mM sodium phosphate, pH 7.8, 120 μM xanthine, 0.2 units/ml xanthine oxidase, with acceptor molecule and salen manganese compound, as indicated. Assays were conducted at 27±0.2° C. using a water-jacketed cell holder in a Beckman DU7400 spectrophotometer. In most cases, oxidized cytochrome c, at 0.13 mg/ml, was employed as acceptor and its reduction was monitored spectrophotometrically at 550 nm. In some experiments, nitroblue tetrazolium (NBT), at 80 μM, was substituted for cytochrome c as the acceptor. NBT reduction was also monitored at 550 nm. An estimated extinction coefficient for NBT reduction, 20,800 M^−1cm^−1, determined empirically by exhaustive reduction of NBT in the reaction mixture described above, was employed where indicated. This value agreed well with reported extinction coefficients for reduced tetrazolium dyes. […] Conversion of xanthine to urate was calculated using ε290's of […] for urate and 4050 M^−1cm^−1 for xanthine. […]

xanthine oxidase = xanthine oxidase (Homo sapiens, UniProt P47989); test: Control reaction for direct inhibition of xanthine oxidase (urate production at 290 nm); type: biochemical; conditions: 6 and 11 μM C7
Sequence of xanthine oxidase (P47989 whole entry, species assumed): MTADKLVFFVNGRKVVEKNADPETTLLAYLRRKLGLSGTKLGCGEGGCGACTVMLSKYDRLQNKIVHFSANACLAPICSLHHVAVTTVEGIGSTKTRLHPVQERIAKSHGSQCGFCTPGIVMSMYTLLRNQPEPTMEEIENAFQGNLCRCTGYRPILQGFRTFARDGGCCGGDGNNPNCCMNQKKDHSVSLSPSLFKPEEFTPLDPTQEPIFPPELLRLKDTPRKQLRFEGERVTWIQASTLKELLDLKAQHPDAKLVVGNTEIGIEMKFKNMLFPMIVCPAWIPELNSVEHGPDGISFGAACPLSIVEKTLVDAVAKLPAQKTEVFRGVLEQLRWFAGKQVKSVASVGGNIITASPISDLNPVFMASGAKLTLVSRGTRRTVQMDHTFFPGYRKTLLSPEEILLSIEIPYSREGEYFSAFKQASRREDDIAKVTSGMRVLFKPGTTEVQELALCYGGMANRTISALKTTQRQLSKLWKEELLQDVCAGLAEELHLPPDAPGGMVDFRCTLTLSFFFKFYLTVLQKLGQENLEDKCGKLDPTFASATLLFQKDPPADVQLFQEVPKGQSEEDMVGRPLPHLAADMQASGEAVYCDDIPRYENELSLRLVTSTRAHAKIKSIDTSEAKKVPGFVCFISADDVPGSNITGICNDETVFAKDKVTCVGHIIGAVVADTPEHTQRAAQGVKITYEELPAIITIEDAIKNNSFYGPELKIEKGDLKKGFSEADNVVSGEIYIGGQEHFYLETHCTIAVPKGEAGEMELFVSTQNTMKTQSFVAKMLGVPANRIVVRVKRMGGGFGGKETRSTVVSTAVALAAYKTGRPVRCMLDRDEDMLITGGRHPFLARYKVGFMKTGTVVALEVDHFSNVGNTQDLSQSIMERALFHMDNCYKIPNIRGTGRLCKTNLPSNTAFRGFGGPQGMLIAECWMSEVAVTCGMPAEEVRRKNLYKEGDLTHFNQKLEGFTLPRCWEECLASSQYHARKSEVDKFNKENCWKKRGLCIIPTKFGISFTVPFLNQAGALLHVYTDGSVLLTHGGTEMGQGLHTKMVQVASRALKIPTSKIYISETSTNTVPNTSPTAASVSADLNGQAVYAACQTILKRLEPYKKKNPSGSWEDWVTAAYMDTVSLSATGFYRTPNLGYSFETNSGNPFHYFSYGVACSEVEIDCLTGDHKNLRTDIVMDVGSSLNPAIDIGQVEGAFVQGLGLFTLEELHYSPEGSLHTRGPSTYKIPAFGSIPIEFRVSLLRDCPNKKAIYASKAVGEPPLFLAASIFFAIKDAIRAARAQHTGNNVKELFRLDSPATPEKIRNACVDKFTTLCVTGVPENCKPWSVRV
Procedure: as §1

[Cl][Mn]1[O]c2ccccc2C=NCCN=Cc2ccccc2[O]1 [Compound C7]
NBT reduction ([1]; 0.1 to 6 μM C7): inhibited the rate of NBT reduction in a concentration-dependent manner; also recorded: inhibits NBT reduction
inhibition of NBT reduction ([1]; about 1.7 nmoles C7): about 59%
effect on xanthine oxidase activity (xanthine oxidase): no effect; also recorded: without affecting
